Read-outs that look alike come from different tables or passages of the source. One block for each molecule: values may come before it.
What was measured:
[1] = target: T1, D3R (Rattus norvegicus, UniProt P19020); test: Competition binding study of [125I]HY-3-24 in rat ventral striatal membranes; conditions: for fold lower affinity/potency for displacing [125I]HY-3-24 relative to eticlopride: rat ventral striatum
T1 construct: The ventral striatum was isolated by dissection on ice; tissue Innovative research, Inc; host or cells: Sprague–Dawley rat brain: ventral striatal homogenates; frozen brain sections
Procedure: (§1) Frozen rat brains (Sprague–Dawley rat, Male, 6–8 weeks old) were obtained from Innovative research, Inc. (Novi, Michigan, United States). The ventral striatum was isolated by dissection on ice. Cold homogenization buffer (HB, 20 mM Tris–HCl, 5 mM MgCl2, 1 mM EDTA, pH7.5) was added and the tissue homogenized by mortar and pestle on ice. Homogenized tissue was centrifuged at 10,000 × g, 4°C for 30 min. Supernatant was removed and pellet was mixed with cold HB buffer by vortex. This process was repeated two times to get rat ventral striatal homogenates; and protein amount was determined using a BCA protein assay kit. Homogenized tissue homogenates were stored at −80°C until use.
10 μM of (+)-butaclamol was used for determination of non-specific binding. The final reaction volume was 200 μL and the assay mixture was incubated at RT for 60 min. […] The filter was washed with cold buffer (3 times) and counted by gamma counter. The value of Ki was calculated using nonlinear regression analysis by PRISM 9 and the results was presented mean ± SD by three individual experiments.

[2] = target: T1, D3R; test: D3R and D2R blocking studies of [125I]HY-3-24 in rat striatal homogenates; type: binding; conditions: blocker at 2.4 nM, rat striatal membranes, RT 2 h
Procedure: For the D3R and D2R blocking studies, [^125I]HY-3-24 (0.3 nM) was mixed with 100 μg of protein and incubated at RT for 2 h in the presence or absence of 30 nM cold HY-3-24, 100 nM SB-277-011A, 10 nM SB-277-011A, or 2.4 nM L-741,626. [^125I]HY-3-24 bound protein was collected by fast filtration methods (GF/C filter soaked in 1% PEI, Brandel Inc., Maryland, United States) and counted using gamma counter (PerkinElmer, Massachusetts, United States).

[3] = target: D2 receptors; design: method as in Kulagowski et al., 1996; conditions: ref Kulagowski et al., 1996; read-out: Ki for displacing [3H]spiperone to D2 receptors; cited from earlier work
[4] = target: hD2R; design: method as in Yang et al., 2000; conditions: ref Yang et al., 2000; cited from earlier work
[5] = target: hD3R; design: method as in Yang et al., 2000; conditions: ref Yang et al., 2000; cited from earlier work
[6] = target: T1, D3R; test: Saturation/equilibrium binding of [125I]HY-3-24 on rat ventral striatum
Procedure: as §1
To confirm saturation time of [^125I]HY-3-24 with prepared membrane, [^125I]HY-3-24 (~0.3 nM) was mixed with 100 μg of membrane and incubated at RT up to 2 h. [^125I]HY-3-24 bound protein was collected by fast filtration methods (CF/C filter, Brandel Inc., Maryland, United States) and counted using gamma counter (PerkinElmer, Massachusetts, United States).
For saturation binding study, [^125I]HY-3-24 (0.001–1.6 nM concentration range) was incubated with 100 μg/100 μL of homogenized protein at RT for 60 min. Non-specific binding was defined the presence of 10 μM (+)-butaclamol, and total reaction volume was 200 μL. The reaction was finished by adding cold buffer (10 mM Tris–HCl, 150 mM NaCl, pH 7.5), and [^125I]HY-3-24 bound protein was filtered by 24-well harvester (Brandel Inc., Maryland, United States) through CF/C filter soaked with 1% PEI, and washed three times with 4 mL cold buffer. The collected filter was counted by gamma counter and data were analyzed by PRISM 9. The values of Bmax and Kd were obtained by three individual experiments.

[7] = target: T2, D3R (Macaca mulatta, UniProt F6U709); test: In vitro autoradiography, non-human primate brain sections; type: binding; conditions: rhesus monkey brain sections
T2 construct: in vitro autoradiography using Sprague–Dawley rat and non-human primate brains; from tissue; host or cells: non-human primate brain sections
Procedure: (§2) Regional brain distribution of [^125I]HY-3-24 binding was determined by in vitro autoradiography using Sprague–Dawley rat and non-human primate brains. A Cryotome (Leica Biosystems, Germany) was used for sectioning frozen brains by coronal and/or sagittal direction, and the thickness of tissue was 10–20 μm. Sectioned slides were stored at −80°C until use. The adjacent brain slides were warmed to RT for 20 min, the slides were incubated with cold reaction buffer (50 mM Tris–HCl, 150 mM NaCl, 1 mM EDTA, pH 7.5) at RT for 10 min, and the buffer was discarded. The slides were then incubated with […] of [^125I]HY-3-24 at RT for 1 h. For non-specific binding, 2 μM of (+)-butaclamol was used. After incubation, the slides were washed with cold buffer (three times) for 2 min, then air dried at RT for 10 min. Radiolabeled brain tissues were exposed to BAS imaging plate (Fujifilm, Tokyo, Japan) for 3 days, and the result was digitized by Typhoon FLA 7000 (GE Healthcare, Illinois, United States) and analyzed by Multi Gauge V3.0. For blocking studies comparing (+)-butaclamol and raclopride, brain slides were initially pretreated with blocking agent (50 nM) for 1 h. prior to the addition of the radioligand (0.3 nM).

[8] = Distribution coefficient (LogD7.4), shake-flask; type: physicochemical; conditions: n-octanol / 0.01 M phosphate buffer pH 7.4, shake-flask, quintuplicate
Procedure: In a separatory funnel, 10 mL of n-octanol and 20 mL of 0.01 M phosphate buffer (pH 7.4) solution were placed and 5 μL of [^125I]HY-3-24 (700 kBq) was added. The mixture was vigorously shaken for 1 min followed by standing for 20 min to completely separate the layers. Five 1 mL of aliquots were taken from each phase and the radioactivity of each fraction was measured by a Wizard2 Automatic Gamma Counter. LogD7.4 was measured in quintuplicate and calculated as the logarithm of the ratio of radioactivity in organic phase to that in water phase.

[9] = target: T1, D3R; test: In vitro autoradiography, rat brain sections; type: binding
Procedure: as §2

[10] = target: hD3R; design: method as in Kim et al., 2023; conditions: ref Kim et al., 2023; cited from earlier work
[11] = target: hD2R; design: method as in Kim et al., 2023; conditions: ref Kim et al., 2023; cited from earlier work
[12] = rat ventral striatal homogenates, 0.2–0.3 nM [125I]HY-3-24, RT 60 min, mean ± SD of three experiments, read-out: Ki for inhibiting [125I]HY-3-24 binding
[13] = rat brain coronal sections, ~0.3 nM radioligand

T1 sequence (P19020 whole entry): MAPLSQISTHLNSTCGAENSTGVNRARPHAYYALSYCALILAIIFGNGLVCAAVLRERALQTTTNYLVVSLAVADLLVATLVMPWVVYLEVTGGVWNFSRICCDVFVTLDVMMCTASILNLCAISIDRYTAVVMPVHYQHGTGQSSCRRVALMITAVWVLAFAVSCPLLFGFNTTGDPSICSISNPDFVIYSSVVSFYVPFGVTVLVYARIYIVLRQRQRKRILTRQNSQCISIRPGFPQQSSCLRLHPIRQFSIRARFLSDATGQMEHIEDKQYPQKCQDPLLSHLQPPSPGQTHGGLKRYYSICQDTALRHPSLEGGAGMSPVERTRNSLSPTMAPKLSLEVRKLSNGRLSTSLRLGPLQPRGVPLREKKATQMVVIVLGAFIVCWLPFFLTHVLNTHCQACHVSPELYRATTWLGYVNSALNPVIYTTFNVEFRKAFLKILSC
T2 sequence (F6U709 1-400): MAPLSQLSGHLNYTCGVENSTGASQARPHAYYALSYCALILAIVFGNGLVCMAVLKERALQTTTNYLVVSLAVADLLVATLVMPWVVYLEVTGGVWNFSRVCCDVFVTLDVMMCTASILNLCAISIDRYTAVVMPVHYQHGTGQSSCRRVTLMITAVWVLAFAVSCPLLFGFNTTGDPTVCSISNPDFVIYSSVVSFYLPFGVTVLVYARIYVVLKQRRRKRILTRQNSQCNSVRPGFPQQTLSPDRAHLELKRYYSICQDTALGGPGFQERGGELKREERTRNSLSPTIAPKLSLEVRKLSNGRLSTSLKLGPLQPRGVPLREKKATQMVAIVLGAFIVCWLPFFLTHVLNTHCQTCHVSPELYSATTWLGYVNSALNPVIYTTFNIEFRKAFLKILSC

Compound: CCCN1CCO[C@@H]2c3cc(O)ccc3CC[C@H]21 [(+)-PHNO]
- Ki [1, 12]: 1.72 ± 0.46 nM

- Ki [1]: 0.25 ± 0.02 nM
Compound: CCc1cc(Cl)c(OC)c(C(=O)NC[C@@H]2CCCN2CC)c1O [Eticlopride]

- displacement of [125I]HY-3-24 binding [2]: no displacement
Compound: OC1(c2ccc(Cl)cc2)CCN(Cc2c[nH]c3ccccc23)CC1 [L-741,626]
- Ki [3]: 2.4 nM

Compound: CCN(CC)CCNC(=O)c1cc(Cl)c(N)cc1OC [Metoclopramide]
- Ki [4]: 21 ± 1 nM
- Ki [5]: 27 ± 3 nM

Compound: CCCN1CCO[C@@H]2c3cc(O)ccc3OC[C@H]21 [PD128907]
- Ki [1, 12]: 7.65 ± 1.15 nM

- Ki [1, 12]: 2.51 ± 0.9 nM
- fold lower affinity/potency for displacing [125I]HY-3-24 relative to eticlopride [1]: 10 fold
Compound: CCN1CCC[C@H]1CNC(=O)c1c(O)c(Cl)cc(Cl)c1OC [Raclopride]

- Ki [1, 12]: 215 ± 61.7 nM
- fold lower affinity/potency for displacing [125I]HY-3-24 relative to eticlopride [1]: 1,000 fold
Compound: CN1CCc2cc(Cl)c(O)cc2[C@@H](c2ccccc2)C1 [SCH23390]

Compound: CCN(CCCNC(=O)c1ccc(-c2ccncc2)cc1)CCNC(=O)c1cc([125I])cc(OC)c1OC [[^125I]HY-3-24]
- percentage of specific binding ([6]; rat ventral striatal membranes): over 70%
- non-specific binding, of total binding ([6]; rat ventral striatal membranes, 10 μM (+)-butaclamol): less than 10%
- Kd ([6]; rat ventral striatal membranes, RT 60 min, three experiments): 0.34 ± 0.22 nM
- Bmax ([6]; rat ventral striatal membranes, fmol/mg of protein, three experiments): 38.91 ± 2.39 fmol/mg
- time to binding equilibrium ([6]; ~0.3 nM radioligand, 100 μg protein, RT, persisted until 2 h): about 30 min
- non-specific binding ([7]; blocking with 2 μM (+)-butaclamol): low level of non-specific binding
- binding in caudate nucleus (Cd), putamen (Pu), NAc, and ICj ([7]; ~0.1 nM radioligand): high density
- logD at 1 min [8]: 2.41 ± 0.01
- binding in NAc including ICjM, and ICj [9, 13]: High binding
- binding in striatum [9, 13]: lower amount of binding
- displaceability by (+)-butaclamol and raclopride ([9]; rat brain slices, blocking agents 50 nM, radioligand ~0.3 nM): fully displaceable

Compound: CCN(CCCNC(=O)c1ccc(-c2ccncc2)cc1)CCNC(=O)c1cc(Br)cc(OC)c1OC [compound 6]
- Ki [10]: 1.1 ± 0.1 nM
- Ki [11]: 107 ± 5 nM

Source: article PMC11036874, “In vitro characterization of [^125I]HY-3-24, a selective ligand for the dopamine D3 receptor” (Frontiers in Neuroscience, 2024)
